Values belong to the compound of their own block, whether it stands above or below them. Active and inactive are the calls of the source.
Key:
Caspase-3 [1] = target: T1, Caspase-3 (Homo sapiens, UniProt P42574); format: functional;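 further: Dose-response selectivity test against caspase-3 for candidate inhibitors of sentrin-specific proteases (SENPs)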
T1 sequence (P42574 whole entry): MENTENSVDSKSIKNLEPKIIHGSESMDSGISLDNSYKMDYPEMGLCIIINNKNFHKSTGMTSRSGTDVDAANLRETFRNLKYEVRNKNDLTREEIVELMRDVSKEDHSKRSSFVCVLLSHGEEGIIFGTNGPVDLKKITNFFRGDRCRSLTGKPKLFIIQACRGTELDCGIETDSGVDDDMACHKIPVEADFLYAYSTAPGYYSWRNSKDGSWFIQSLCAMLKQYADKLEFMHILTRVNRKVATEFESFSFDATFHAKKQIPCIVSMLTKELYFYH

Caspase-8 = Caspase-8 (Homo sapiens, UniProt Q14790); assay: caspase-8 inhibition counter-screen, dose response, selectivity assay for caspase-6 inhibitor project, biochemical, Z-IETD-R110 fluorescence, cherry-picked samples (AID 743294)
Insulin-degrading enzyme = target: T2, Insulin-degrading enzyme (Homo sapiens, UniProt P14735); assay: activators of recombinant IDE enzyme, dose response, counter-screen for IDE activator project, biochemical, fluorescence polarization (AID 588681)
T2 sequence (P14735 whole entry): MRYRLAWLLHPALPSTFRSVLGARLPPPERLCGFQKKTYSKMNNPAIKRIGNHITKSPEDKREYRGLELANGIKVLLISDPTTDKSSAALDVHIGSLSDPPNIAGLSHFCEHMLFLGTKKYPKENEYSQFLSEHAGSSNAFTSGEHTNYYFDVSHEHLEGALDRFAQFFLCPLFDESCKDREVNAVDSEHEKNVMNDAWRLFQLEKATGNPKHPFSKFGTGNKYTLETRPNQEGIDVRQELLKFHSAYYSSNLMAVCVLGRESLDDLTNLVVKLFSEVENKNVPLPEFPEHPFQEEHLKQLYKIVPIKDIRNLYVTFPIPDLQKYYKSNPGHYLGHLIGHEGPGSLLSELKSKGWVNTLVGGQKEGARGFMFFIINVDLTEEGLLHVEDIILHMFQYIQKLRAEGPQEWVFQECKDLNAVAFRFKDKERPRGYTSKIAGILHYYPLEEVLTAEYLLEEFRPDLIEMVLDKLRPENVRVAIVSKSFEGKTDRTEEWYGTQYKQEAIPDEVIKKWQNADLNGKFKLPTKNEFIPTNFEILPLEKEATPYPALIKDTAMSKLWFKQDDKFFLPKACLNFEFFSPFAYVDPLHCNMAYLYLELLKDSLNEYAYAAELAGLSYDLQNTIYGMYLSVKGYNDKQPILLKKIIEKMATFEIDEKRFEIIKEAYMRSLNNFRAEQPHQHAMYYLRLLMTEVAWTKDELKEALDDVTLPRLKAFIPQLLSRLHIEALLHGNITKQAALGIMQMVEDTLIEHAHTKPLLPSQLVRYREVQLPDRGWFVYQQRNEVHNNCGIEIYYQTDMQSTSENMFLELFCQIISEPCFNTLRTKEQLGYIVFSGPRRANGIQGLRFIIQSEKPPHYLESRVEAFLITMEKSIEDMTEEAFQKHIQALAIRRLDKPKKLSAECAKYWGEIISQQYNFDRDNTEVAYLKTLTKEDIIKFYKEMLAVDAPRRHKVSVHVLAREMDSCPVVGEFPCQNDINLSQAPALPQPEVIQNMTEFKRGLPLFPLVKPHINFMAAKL

HEK293 = assay: HEK cell cytotoxicity by LDH release, dose response, cytotoxicity control for IDE activator project, fluorescence, HEK cells (AID 588440); format: functional, cell-based; details: Homo sapiens;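 further: cytotoxicity by LDH release measuring loss of membrane integrity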
Caspase-3 [2] = target: T1, Caspase-3; assay: caspase-3 enzyme inhibitors, selectivity check, dose response, selectivity assay for caspase-6 allosteric inhibitor project, biochemical, fluorescence, cherry-picked samples (AID 743291)
[3] = target: Megakaryocyte-associated tyrosine-protein kinase (Homo sapiens, UniProt P42679); format: functional;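 further: affinity measured as one member of a kinase panel (Navigating the Kinome) against MATK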
[4] = target: cGMP-dependent protein kinase 1 (Homo sapiens, UniProt Q13976); format: functional;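 further: value from a kinome panel screen with PRKG1 as the panel member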
[5] = target: Serine/threonine-protein kinase D2 (Homo sapiens, UniProt Q9BZL6); format: functional;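 further: measured against PRKD2 as one member of a kinome-wide kinase profiling panel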
[6] = target: Serine/threonine-protein kinase 17A (Homo sapiens, UniProt Q9UEE5); format: functional
[7] = target: Serine/threonine-protein kinase PAK 1 (Homo sapiens, UniProt Q13153); format: functional
[8] = target: Homeodomain-interacting protein kinase 2 (Homo sapiens, UniProt Q9H2X6); format: functional;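 further: measured within a kinome-wide kinase profiling panel, HIPK2 being one panel member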
[9] = target: MAP/microtubule affinity-regulating kinase 3 (Homo sapiens, UniProt P27448); format: functional;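 further: MARK3 affinity measured as one member of a kinome panel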
[10] = target: Mitogen-activated protein kinase kinase kinase 20 (Homo sapiens, UniProt Q9NYL2); format: functional
[11] = target: MAP kinase-activated protein kinase 3 (Homo sapiens, UniProt Q16644); format: functional;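 further: value comes from a kinome-wide profiling panel in which MAPKAPK3 is one of the panel members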
Ephrin type-A receptor 2 = Ephrin type-A receptor 2 (Homo sapiens, UniProt P29317); format: functional;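 further: EPHA2 tested as one member of a kinome-wide kinase panel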
Misshapen-like kinase 1 = Misshapen-like kinase 1 (Homo sapiens, UniProt Q8N4C8); format: functional;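 further: kinome panel screen with MINK as the panel member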
[12] = target: Dual specificity tyrosine-phosphorylation-regulated kinase 4 (Homo sapiens, UniProt Q9NR20); format: functional
[13] = target: Interleukin-1 receptor-associated kinase 1 (Homo sapiens, UniProt P51617); format: functional;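 further: IRAK1 tested as one member of a kinome panel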
[14] = target: RAC-alpha serine/threonine-protein kinase (Homo sapiens, UniProt P31749); format: functional;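 further: AKT1 affinity measured as one member of a kinome-wide kinase profiling panel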
[15] = target: Tyrosine-protein kinase Fer (Homo sapiens, UniProt P16591); format: functional;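 further: FER tested as one member of a kinome panel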
[16] = target: Serine/threonine-protein kinase BRSK1 (Homo sapiens, UniProt Q8TDC3); format: functional;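 further: measured within a kinome-wide kinase panel, with the target listed as KIAA1811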
[17] = target: Tyrosine-protein kinase Lck (Homo sapiens, UniProt P06239); format: functional;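 further: lck was assayed as one member of a kinase panel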
[18] = target: Dual specificity protein kinase CLK4 (Homo sapiens, UniProt Q9HAZ1); format: functional

Dual specificity tyrosine-phosphorylation-regulated kinase 4, sequence (Q9NR20 whole entry): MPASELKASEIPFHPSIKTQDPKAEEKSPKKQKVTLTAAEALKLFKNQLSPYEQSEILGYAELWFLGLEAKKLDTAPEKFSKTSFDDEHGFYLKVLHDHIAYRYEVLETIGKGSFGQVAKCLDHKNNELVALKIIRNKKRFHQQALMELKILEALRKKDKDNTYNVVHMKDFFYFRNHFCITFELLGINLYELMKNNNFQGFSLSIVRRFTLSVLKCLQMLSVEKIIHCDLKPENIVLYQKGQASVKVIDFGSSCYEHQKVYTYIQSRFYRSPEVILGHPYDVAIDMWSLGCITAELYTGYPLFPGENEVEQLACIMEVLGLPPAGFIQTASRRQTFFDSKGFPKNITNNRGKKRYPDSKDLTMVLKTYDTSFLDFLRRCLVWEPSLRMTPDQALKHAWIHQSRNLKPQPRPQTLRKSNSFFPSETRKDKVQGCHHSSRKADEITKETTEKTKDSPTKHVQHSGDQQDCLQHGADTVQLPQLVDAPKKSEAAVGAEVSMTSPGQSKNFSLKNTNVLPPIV
Serine/threonine-protein kinase D2, sequence (Q9BZL6 whole entry): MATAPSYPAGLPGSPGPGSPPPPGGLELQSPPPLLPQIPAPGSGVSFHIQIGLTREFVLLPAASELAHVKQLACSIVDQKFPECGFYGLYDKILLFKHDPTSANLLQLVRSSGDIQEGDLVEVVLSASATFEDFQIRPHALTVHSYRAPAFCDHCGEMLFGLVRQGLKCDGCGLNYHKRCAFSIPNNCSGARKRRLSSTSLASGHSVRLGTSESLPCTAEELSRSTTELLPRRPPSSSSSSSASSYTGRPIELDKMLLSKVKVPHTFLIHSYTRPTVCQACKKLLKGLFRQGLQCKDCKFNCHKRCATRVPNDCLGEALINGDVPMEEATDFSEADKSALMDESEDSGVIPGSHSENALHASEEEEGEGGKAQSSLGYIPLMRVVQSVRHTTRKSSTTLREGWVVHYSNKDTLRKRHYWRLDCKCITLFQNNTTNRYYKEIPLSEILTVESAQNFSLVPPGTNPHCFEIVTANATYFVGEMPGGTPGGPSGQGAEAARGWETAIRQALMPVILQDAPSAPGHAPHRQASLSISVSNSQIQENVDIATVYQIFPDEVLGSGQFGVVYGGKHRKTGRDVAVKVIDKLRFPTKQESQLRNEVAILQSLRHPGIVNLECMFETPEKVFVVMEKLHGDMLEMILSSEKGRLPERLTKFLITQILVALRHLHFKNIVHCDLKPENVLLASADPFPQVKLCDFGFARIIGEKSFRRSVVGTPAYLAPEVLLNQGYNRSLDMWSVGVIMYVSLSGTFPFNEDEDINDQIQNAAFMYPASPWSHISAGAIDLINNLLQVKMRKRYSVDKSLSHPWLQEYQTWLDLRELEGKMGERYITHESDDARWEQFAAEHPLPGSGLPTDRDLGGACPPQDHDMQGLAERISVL
Serine/threonine-protein kinase PAK 1, sequence (Q13153 whole entry): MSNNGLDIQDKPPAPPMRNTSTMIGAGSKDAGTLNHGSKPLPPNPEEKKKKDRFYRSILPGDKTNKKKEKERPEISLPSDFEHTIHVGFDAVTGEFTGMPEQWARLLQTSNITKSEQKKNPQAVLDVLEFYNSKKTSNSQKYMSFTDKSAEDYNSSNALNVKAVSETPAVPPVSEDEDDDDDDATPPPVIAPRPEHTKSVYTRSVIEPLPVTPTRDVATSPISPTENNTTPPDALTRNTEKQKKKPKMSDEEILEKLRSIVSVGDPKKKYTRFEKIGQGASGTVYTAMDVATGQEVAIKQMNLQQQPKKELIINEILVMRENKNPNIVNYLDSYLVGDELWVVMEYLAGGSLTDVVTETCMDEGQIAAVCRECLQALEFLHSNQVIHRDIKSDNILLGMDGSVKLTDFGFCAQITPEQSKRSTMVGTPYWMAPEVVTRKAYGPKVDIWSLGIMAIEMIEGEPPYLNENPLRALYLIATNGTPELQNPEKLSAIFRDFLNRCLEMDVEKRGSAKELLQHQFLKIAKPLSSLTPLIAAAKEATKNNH
Homeodomain-interacting protein kinase 2, sequence (Q9H2X6 whole entry): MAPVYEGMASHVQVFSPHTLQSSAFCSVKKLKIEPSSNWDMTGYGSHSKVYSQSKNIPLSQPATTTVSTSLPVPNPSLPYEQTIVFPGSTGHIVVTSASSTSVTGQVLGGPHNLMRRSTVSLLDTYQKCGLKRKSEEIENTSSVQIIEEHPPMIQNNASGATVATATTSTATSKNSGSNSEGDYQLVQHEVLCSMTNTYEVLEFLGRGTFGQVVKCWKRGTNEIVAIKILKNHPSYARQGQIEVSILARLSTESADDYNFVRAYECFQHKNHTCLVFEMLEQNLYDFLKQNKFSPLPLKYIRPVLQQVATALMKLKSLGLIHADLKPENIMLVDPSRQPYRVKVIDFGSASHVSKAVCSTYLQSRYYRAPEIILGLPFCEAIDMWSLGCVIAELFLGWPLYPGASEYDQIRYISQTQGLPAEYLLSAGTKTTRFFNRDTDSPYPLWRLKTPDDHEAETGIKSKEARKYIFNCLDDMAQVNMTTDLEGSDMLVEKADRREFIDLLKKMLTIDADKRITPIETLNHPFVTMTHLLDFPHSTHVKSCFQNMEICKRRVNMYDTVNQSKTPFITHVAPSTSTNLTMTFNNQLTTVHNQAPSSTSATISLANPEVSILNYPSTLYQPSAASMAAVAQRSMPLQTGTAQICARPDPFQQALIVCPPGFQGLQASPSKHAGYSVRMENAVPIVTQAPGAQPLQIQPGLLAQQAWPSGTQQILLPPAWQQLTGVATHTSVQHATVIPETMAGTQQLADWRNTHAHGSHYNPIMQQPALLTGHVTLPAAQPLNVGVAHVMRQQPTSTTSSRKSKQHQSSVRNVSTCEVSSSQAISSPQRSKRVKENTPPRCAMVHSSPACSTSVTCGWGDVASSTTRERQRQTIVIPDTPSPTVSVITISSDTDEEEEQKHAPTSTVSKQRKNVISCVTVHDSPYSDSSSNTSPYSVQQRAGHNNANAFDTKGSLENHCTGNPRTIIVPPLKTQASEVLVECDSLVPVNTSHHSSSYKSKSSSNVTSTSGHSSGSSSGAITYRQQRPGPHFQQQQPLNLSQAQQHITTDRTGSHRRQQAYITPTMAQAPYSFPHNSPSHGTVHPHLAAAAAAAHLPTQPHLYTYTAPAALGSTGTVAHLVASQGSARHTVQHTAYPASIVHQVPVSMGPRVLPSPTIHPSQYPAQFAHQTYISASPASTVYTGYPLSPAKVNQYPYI
MAP/microtubule affinity-regulating kinase 3, sequence (P27448 whole entry): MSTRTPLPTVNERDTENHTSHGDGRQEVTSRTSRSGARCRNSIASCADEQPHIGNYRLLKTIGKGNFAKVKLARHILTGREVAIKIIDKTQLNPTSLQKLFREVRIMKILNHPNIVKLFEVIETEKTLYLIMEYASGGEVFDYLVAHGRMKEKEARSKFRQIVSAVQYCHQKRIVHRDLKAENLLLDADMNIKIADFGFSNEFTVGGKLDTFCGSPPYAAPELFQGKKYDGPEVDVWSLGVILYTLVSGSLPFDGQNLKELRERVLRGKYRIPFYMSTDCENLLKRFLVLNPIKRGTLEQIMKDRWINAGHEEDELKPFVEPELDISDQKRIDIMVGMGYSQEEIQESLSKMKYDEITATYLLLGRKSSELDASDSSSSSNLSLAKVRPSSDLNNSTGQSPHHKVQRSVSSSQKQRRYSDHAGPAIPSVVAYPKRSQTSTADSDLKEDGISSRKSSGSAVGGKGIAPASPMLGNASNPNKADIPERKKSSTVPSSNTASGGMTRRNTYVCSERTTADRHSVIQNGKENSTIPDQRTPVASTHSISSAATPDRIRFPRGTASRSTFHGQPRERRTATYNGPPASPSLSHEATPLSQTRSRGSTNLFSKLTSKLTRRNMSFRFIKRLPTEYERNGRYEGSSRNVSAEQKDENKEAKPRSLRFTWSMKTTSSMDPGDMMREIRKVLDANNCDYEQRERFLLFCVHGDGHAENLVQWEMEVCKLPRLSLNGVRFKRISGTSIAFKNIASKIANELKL
cGMP-dependent protein kinase 1, sequence (Q13976 whole entry): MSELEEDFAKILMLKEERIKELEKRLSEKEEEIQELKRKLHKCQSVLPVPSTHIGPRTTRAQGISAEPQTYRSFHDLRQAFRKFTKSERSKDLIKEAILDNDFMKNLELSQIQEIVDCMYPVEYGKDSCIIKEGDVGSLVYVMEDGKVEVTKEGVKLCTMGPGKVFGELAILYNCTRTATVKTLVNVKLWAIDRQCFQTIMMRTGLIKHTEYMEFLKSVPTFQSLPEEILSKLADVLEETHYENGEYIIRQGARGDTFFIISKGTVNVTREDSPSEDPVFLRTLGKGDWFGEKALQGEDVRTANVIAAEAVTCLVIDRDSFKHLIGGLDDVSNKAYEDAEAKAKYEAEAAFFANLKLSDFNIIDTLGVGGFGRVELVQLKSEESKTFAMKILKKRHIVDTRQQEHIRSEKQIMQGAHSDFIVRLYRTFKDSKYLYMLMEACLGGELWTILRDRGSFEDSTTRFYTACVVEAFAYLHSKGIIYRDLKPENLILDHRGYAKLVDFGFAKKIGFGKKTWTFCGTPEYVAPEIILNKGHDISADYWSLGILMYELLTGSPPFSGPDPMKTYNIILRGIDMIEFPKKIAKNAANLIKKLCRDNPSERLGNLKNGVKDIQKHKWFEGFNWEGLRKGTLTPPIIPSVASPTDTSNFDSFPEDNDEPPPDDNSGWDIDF
RAC-alpha serine/threonine-protein kinase, sequence (P31749 whole entry): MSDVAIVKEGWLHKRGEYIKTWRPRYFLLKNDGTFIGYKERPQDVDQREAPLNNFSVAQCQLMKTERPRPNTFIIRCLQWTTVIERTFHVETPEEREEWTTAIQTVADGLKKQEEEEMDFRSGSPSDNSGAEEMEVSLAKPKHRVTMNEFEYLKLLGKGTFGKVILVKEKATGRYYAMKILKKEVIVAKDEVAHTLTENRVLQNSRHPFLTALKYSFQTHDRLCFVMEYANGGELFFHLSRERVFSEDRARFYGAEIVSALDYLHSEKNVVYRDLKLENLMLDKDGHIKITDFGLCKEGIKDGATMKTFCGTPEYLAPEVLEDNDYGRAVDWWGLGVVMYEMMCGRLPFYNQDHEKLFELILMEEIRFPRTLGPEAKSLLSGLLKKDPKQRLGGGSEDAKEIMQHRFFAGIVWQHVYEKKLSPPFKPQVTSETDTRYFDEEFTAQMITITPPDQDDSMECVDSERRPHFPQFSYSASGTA

IC50 (Caspase-3 [1]): 8430 nM (active)
AC50 (Caspase-8): 18600 nM (active)
SMILES: O=C(COC(=O)c1ccc([N+](=O)[O-])s1)Nc1ccc(F)cc1

SMILES: CCN(CC)CCCC(C)n1c2nc(=O)[nH]c(=O)c-2nc2cc(Cl)ccc21 (stereo not given)
EC50 (Insulin-degrading enzyme): > 54700 nM (inactive)
IC50 (HEK293): > 89200 nM (inactive)
AC50 (Caspase-3 [2]): 561 nM (active)

Ki [3]: > 2000 nM (inactive)
Ki [4]: 100 nM (active)
pKi [4]: 7
Ki [5]: 20 nM (active)
pKi [5]: 7.7
Ki [6]: 39.8 nM (active)
pKi [6]: 7.4
Ki [7]: 1260 nM (active)
pKi [7]: 5.9
Ki [8]: 31.6 nM (active)
pKi [8]: 7.5
Ki [9]: 50.1 nM (active)
pKi [9]: 7.3
Ki [10]: > 7940 nM (inactive)
Ki [11]: > 10000 nM (inactive)
Ki (Ephrin type-A receptor 2): > 3160 nM (inactive)
Ki (Misshapen-like kinase 1): 3.16 nM (active)
pKi (Misshapen-like kinase 1): 8.5
Ki [12]: 3160 nM (active)
pKi [12]: 5.5
Ki [13]: 79.4 nM (active)
pKi [13]: 7.1
Ki [14]: 2000 nM (active)
pKi [14]: 5.7
Ki [15]: 200 nM (active)
pKi [15]: 6.7
Ki [16]: 1000 nM (active)
pKi [16]: 6
SMILES: OC1CCC(Nc2nc(Cl)cc(-c3c[nH]c4ncccc34)n2)CC1 (stereo not given)

Ki [17]: > 6310 nM (inactive)
Ki [18]: > 2510 nM (inactive)
SMILES: COc1cccc(CNC(=O)c2cnc(-c3ccncc3)nc2)c1

Source: ChEMBL document CHEMBL1201862, “PubChem BioAssay data set” (2004)
